From patent US20060067959A1, “Compositions and methods for treatment of solar damage” (priority 2004, published 2006)

What was measured:
[1] = system: NIH 3T3 cells
Experimental: NIH 3T3 cells were used in these studies. Cells were cultured in 24-well plates at a density of […] in 10% FBS/DMEM overnight. […] Cells were incubated for 72 hours before cell counting and morphological studies.

[2] = target: T1, bovine tendon (Bos taurus, UniProt P02453+P02465); assay: Melting temperature measurement of fixed tendon; details: treated 48 hours, n = 3; PA 0.5% in PBS, GA 0.625% in PBS; untreated control 55 ± 0.5; in °C
T1 construct: Fresh bovine tendon; from tissue; host or cells: bovine tendon
Experimental: (§1) The fixed tissues and fresh tissues were assayed for their melting temperature by heating tissue strips (1×2 cm^2, n=3). The melting temperature was recorded when tissues started to shrink.

[3] = system: bovine pericardium; assay: Melting temperature measurement of fixed pericardium; details: treated 48 hours, n = 3; PA 0.5% in PBS, GA 0.625% in PBS; untreated control 70 ± 1.0; in °C
Experimental: as §1

[4] = system: bovine pericardium; assay: In vitro enzymatic degradation by collagenase, H&E histology; details: 24 h digestion, 0.5% proanthocyanidin or 0.625% GA treated, fresh tissues disintegrated
Experimental: Tissue integrity was checked at the end of the incubation using a standard histological method (hematoxylin-eosin (H&E)). […] At predetermined intervals, 1.0 mL solution was taken out and filtered through an 0.45-μM cellulose filter to separate solubilized collagen from insolubilized matrix. The amount of solubilized collagen was determined after total acid hydrolysis in 6N HCl for 24 h at 100° C. by measuring hydroxyproline (R. Kultan et al., “Collagen Treated with (+)-Catechin Becomes Resistant to the Action of Mammalian Collagenase,” Experientia 37: 221-223 (1981)). The results are expressed as a percentage of the total collagen solubilized.

[5] = system: human skin fibroblasts; assay: Cell proliferation and collagen synthesis on treated pericardium; type: cell-based; details: discussion summary
Experimental: Discs, 15 mm in diameter, were punched out from PA-treated bovine pericardium and inserted into the bottom of 24-well plates, After washing and equilibrating with PBS, human skin fibroblasts, 8×10^4/well, third passage (kindly provided by Dr. Warren Garner, University of Southern California) were placed on top of the tissues. After 48 h of culture in 10% FBS/DMEM, the medium was changed to labeling medium ([^3H]thymidine, 10 μCi/mL, 0.5% FBS/DMEM) followed by a 24-h labeling period. Cells proliferation was assayed and collagen synthesis recorded as [^3H]OH-proline incorporation in a culture medium containing 25 μg/mL ascorbic acid, 25 μg/mL β-APN and 25 μCi/mL [^3H]proline in 0.5% FBS/DMEM after labeling for 48 h.

[6] = system: Fischer 344 rats; assay: Subcutaneous implantation of treated tissue
Description: Three-week-old Fischer 344 rats were obtained from Harlan Sprague Dawley, Inc. (Indianapolis, Ind.). NIH and University of Southern California IACUC guidelines for the care and use of laboratory animals were observed. […] The samples were retrieved after 3 and 6 weeks postoperation, and samples were processed for H&E and von Kossa staining, the latter to determine the extent of calcification.

T1 sequence (P02453 162-1217 limits assumed): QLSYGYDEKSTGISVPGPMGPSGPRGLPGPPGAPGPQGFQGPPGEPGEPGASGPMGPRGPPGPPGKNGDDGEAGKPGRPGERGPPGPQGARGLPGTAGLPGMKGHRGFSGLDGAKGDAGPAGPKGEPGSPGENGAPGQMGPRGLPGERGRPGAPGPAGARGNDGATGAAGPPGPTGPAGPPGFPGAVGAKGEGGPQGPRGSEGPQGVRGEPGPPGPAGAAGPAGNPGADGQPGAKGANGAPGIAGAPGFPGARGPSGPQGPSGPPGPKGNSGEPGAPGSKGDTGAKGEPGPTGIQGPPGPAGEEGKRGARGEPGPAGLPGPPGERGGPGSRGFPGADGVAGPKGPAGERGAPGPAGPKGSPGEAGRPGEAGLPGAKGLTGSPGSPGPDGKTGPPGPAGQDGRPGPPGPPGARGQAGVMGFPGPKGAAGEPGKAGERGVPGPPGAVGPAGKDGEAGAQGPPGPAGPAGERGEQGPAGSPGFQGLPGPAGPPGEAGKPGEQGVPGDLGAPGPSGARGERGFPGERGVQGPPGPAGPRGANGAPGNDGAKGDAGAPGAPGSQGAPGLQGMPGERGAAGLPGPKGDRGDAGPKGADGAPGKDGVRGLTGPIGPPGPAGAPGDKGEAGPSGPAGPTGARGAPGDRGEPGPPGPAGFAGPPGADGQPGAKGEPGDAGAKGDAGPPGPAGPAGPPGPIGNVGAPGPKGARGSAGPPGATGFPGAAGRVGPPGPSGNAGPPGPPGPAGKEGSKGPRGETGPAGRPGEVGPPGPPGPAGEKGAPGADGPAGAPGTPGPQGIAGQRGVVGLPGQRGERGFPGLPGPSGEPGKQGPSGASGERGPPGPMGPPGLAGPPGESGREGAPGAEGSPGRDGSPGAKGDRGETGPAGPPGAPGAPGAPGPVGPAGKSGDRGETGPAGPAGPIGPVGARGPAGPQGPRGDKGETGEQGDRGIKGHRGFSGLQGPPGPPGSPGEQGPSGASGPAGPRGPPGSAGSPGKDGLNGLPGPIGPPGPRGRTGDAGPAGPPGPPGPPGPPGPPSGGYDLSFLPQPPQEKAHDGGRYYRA
T1 sequence (P02465 80-1117 limits assumed): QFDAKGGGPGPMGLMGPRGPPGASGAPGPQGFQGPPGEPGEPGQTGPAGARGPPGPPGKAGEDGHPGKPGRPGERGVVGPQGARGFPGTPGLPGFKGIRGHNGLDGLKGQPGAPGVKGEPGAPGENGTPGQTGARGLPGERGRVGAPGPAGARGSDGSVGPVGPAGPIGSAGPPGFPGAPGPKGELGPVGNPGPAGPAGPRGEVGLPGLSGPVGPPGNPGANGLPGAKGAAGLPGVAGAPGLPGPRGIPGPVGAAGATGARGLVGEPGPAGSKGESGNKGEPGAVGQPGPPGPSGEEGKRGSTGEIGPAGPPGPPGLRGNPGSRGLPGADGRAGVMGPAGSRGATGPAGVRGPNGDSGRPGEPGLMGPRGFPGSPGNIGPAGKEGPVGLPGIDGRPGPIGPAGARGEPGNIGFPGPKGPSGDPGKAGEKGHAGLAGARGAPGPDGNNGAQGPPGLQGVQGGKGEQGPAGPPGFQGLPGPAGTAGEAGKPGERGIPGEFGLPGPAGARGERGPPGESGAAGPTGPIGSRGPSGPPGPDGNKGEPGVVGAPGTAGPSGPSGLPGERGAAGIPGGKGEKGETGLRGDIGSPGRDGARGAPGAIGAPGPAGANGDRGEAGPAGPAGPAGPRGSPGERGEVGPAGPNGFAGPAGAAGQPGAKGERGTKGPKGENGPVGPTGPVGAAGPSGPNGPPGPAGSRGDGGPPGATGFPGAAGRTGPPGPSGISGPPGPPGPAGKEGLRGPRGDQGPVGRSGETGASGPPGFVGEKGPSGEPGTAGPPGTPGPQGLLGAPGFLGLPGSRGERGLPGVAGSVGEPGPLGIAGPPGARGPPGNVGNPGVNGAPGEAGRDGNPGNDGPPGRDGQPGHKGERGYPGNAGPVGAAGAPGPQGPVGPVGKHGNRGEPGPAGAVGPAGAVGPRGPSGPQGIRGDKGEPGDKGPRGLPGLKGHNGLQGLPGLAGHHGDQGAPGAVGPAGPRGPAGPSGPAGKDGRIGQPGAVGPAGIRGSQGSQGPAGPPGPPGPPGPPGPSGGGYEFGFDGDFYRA

Melting temperature, Tendon [2]: 84 ± 1.0 | collagen fibril structure after collagenase digestion [4]: remained intact | calcification (Von Kossa staining) ([6]; rat, in vivo): dystrophic calcification | calcification after implantation ([6]; rat, in vivo): encourages dystrophic calcification | tissue reaction to implant ([6]; rat, in vivo): lesser inflammatory reaction
SMILES: O=CCCCC=O [GA, glutaraldehyde]
cytotoxicity (FIG. 1 legend) [1]: cytotoxicity | cytotoxicity of treated tissue [1]: continues to be cytotoxic | concentration at which cells could not survive ([1]; mouse, 72 h): > 0.6 µg/mL | Melting temperature, Pericardium [3]: 94 ± 1.5 | rate of collagen synthesis of fibroblasts [5]: inhibits collagen synthesis | degradation of fixed tissue after subcutaneous implantation ([6]; periods ranging from 3 and 6 weeks (discussion)): no apparent degradation | implant degradation ([6]; six weeks postoperatively, control completely degraded): still intact | implant integrity ([6]; three weeks postoperatively, control tissues start to disaggregate): retain their integrity
